According to ChEMBL document CHEMBL1148609, “Orally active purine-based inhibitors of the heat shock protein 90” (J Med Chem, 2006):
pIC50: −log10 of the molar value.

Target: Heat shock protein HSP 90-alpha (Homo sapiens) (UniProt P07900)
Assay: Hsp90 inhibition measured as HER-2 degradation in MCF-7 cells

| Structure (SMILES) | pIC50 |
| --- | --- |
| CCCCn1c(Cc2cc(OC)ccc2OC)nc2c(N)ncnc21 | 4.92 |
| CCCCn1c(Cc2cc(OC)ccc2I)nc2c(N)ncnc21 | 5.30 |
| CCC(CC)NCCCn1c(Sc2cc(OC)ccc2I)nc2c(N)ncnc21 | 6.68 |
| CCCCn1c(Sc2cc(OC)ccc2OC)nc2c(N)ncnc21 | 5.46 |
| COc1ccc(I)c(Sc2nc3c(N)ncnc3n2CCC=C(C)C)c1 | 6.43 |
| CCCCn1c(Cc2cc(OC)ccc2Cl)nc2c(N)ncnc21 | 4.70 |
| COc1ccc(I)c(Sc2nc3c(N)ncnc3n2CCCNC(C)(C)C)c1 | 6.85 |
| CCCCn1c(Cc2cc(OC)ccc2Br)nc2c(N)ncnc21 | 5.10 |
| C#CCCCn1c(Sc2cc(OC)ccc2I)nc2c(N)nc(F)nc21 | 6.44 |
| COc1ccc(I)c(Sc2nc3c(N)ncnc3n2CCCNC(C)C)c1 | 6.74 |
| CCC(C)NCCCn1c(Sc2cc(OC)ccc2I)nc2c(N)ncnc21 (stereo unspecified) | 6.68 |
